Test system: 186277-243-T-J2-PDC complex spheroids, viability
Test: Anticancer human tumor 186277-243-T-J2-PDC patient-derived colon adenocarcinoma cell line growth inhibition [RAS]
Details: for IC50: curve of first compound; for viability, T/C: stronger effect = lower value; active means viability on the fitted dose curve at most 10% of control; inactive means the rest
Outline: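 Agents were tested in combination matrices in half-log decrements from a top concentration at or near clinical Cmax (10 microM if undetermined). Targets were multi-cell spheroids of tumour lines plus HUVEC and MSC stromal cells.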

[1] = second compound 0.00316 µM, first compound 0.00316 µM
[2] = second compound 0.00316 µM, first compound 0.01 µM
[3] = second compound 0.00316 µM, first compound 0.0316 µM
[4] = second compound 0.00316 µM, first compound 0.1 µM
[5] = second compound 0.01 µM, first compound 0.00316 µM
[6] = second compound 0.01 µM, first compound 0.01 µM
[7] = second compound 0.01 µM, first compound 0.0316 µM
[8] = second compound 0.01 µM, first compound 0.1 µM
[9] = second compound 0.0316 µM, first compound 0.00316 µM
[10] = second compound 0.0316 µM, first compound 0.01 µM
[11] = second compound 0.0316 µM, first compound 0.0316 µM
[12] = second compound 0.0316 µM, first compound 0.1 µM
[13] = second compound 0.1 µM, first compound 0.00316 µM
[14] = second compound 0.1 µM, first compound 0.01 µM
[15] = second compound 0.1 µM, first compound 0.0316 µM
[16] = second compound 0.1 µM, first compound 0.1 µM
[17] = second compound 0.316 µM, first compound 0.00316 µM
[18] = second compound 0.316 µM, first compound 0.01 µM
[19] = second compound 0.316 µM, first compound 0.0316 µM
[20] = second compound 0.316 µM, first compound 0.1 µM
[21] = second compound 1 µM, first compound 0.00316 µM
[22] = second compound 1 µM, first compound 0.01 µM
[23] = second compound 1 µM, first compound 0.0316 µM
[24] = second compound 1 µM, first compound 0.1 µM
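Further: spheroids exposed to compounds for 7 days before viability read.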

Nc1ccn(C2OC(CO)C(O)C2(F)F)c(=O)n1 (centres undefined) + C=CC(=O)N1CCN(c2nc(OCC3CCCN3C)nc3c(F)c(-c4nc(N)cc(C)c4C(F)(F)F)c(Cl)cc23)C(C)C1
inactive: viability, T/C [1] 73.3% | viability, T/C [2] 16.4% | viability, T/C [3] 12.9% | viability, T/C [4] 10.3% | viability, T/C (second compound 0.00316 µM, first compound 0.316 µM) 11.1% | viability, T/C (second compound 0.00316 µM, first compound 1 µM) 11.5% | viability, T/C [5] 73.9% | viability, T/C [6] 14.4% | viability, T/C [7] 10.9% | viability, T/C [8] 10.2% | viability, T/C (second compound 0.01 µM, first compound 0.316 µM) 9.07% | viability, T/C (second compound 0.01 µM, first compound 1 µM) 11% | viability, T/C [9] 65.2% | viability, T/C [10] 17.3% | viability, T/C [11] 13.5% | viability, T/C [12] 10.2% | viability, T/C (second compound 0.0316 µM, first compound 0.316 µM) 10.7% | viability, T/C (second compound 0.0316 µM, first compound 1 µM) 12.2% | viability, T/C [13] 64.1% | viability, T/C [14] 15.2% | viability, T/C [15] 11.7% | viability, T/C [16] 11.3% | viability, T/C (second compound 0.1 µM, first compound 0.316 µM) 10.1% | viability, T/C (second compound 0.1 µM, first compound 1 µM) 11.8% | viability, T/C [17] 64.3% | viability, T/C [18] 16% | viability, T/C [19] 13.1% | viability, T/C [20] 11.8% | viability, T/C (second compound 0.316 µM, first compound 0.316 µM) 11.8% | viability, T/C (second compound 0.316 µM, first compound 1 µM) 12.9% | viability, T/C [21] 45.3% | viability, T/C [22] 18.9% | viability, T/C [23] 17.2% | viability, T/C [24] 14.1% | viability, T/C (second compound 1 µM, first compound 0.316 µM) 13.5% | viability, T/C (second compound 1 µM, first compound 1 µM) 14.8%
4.45 nM: IC50 (second compound 0.316 µM)
< 3.16 nM: IC50 (second compound 1 µM)
4.55 nM: IC50 (second compound 0.0316 µM)
5.02 nM: IC50 (second compound 0.01 µM)
5.06 nM: IC50 (second compound 0.00316 µM)
4.41 nM: IC50 (second compound 0.1 µM)

CC(C)n1nc(-c2ccc3oc(N)nc3c2)c2c(N)ncnc21 + C=CC(=O)N1CCN(c2nc(OCC3CCCN3C)nc3c(F)c(-c4nc(N)cc(C)c4C(F)(F)F)c(Cl)cc23)C(C)C1
> 100 nM: IC50 (second compound 0.01 µM) | IC50 (second compound 0.0316 µM)
95.1 nM: IC50 (second compound 0.316 µM)
80.3 nM: IC50 (second compound 1 µM)
85.1 nM: IC50 (second compound 0.00316 µM)
97.6 nM: IC50 (second compound 0.1 µM)
inactive: viability, T/C (second compound 0.00316 µM, first compound 0.000316 µM) 109% | viability, T/C (second compound 0.00316 µM, first compound 0.001 µM) 92.1% | viability, T/C [1] 91.1% | viability, T/C [2] 80.4% | viability, T/C [3] 90.1% | viability, T/C [4] 43.5% | viability, T/C (second compound 0.01 µM, first compound 0.000316 µM) 97.6% | viability, T/C (second compound 0.01 µM, first compound 0.001 µM) 96.7% | viability, T/C [5] 82.5% | viability, T/C [6] 106% | viability, T/C [7] 77.7% | viability, T/C [8] 51.4% | viability, T/C (second compound 0.0316 µM, first compound 0.000316 µM) 95.1% | viability, T/C (second compound 0.0316 µM, first compound 0.001 µM) 104% | viability, T/C [9] 80.3% | viability, T/C [10] 123% | viability, T/C [11] 89.8% | viability, T/C [12] 56.8% | viability, T/C (second compound 0.1 µM, first compound 0.000316 µM) 94.5% | viability, T/C (second compound 0.1 µM, first compound 0.001 µM) 106% | viability, T/C [13] 108% | viability, T/C [14] 91% | viability, T/C [15] 90.8% | viability, T/C [16] 48.5% | viability, T/C (second compound 0.316 µM, first compound 0.000316 µM) 92.5% | viability, T/C (second compound 0.316 µM, first compound 0.001 µM) 106% | viability, T/C [17] 94% | viability, T/C [18] 93.9% | viability, T/C [19] 97.4% | viability, T/C [20] 48% | viability, T/C (second compound 1 µM, first compound 0.000316 µM) 109% | viability, T/C (second compound 1 µM, first compound 0.001 µM) 101% | viability, T/C [21] 84.6% | viability, T/C [22] 113% | viability, T/C [23] 82.5% | viability, T/C [24] 42.5%

Source: PubChem BioAssay AID2060908 (Molecular Pharmacology Branch, DTP, NCI, 2025)
